Reference: article PMC2632775 (Nuclear medicine and biology, 2008)
Where two headings read alike, the source gives them in different places.

Experiments:
VMAT2 = VMAT2 (Rattus norvegicus, UniProt Q01827); experiment: In vitro autoradiography using rat brain sections; format: binding; conditions: preliminary, data not shown
[1] = target: T1, VMAT2 binding sites in the pancreas (Rattus norvegicus, UniProt Q01827); experiment: Blocking studies of pancreatic uptake in rats; format: in vivo; conditions: for Blood uptake, Pretreatment / Pancreas uptake, Pretreatment: n=5, ± SD
[2] = target: T1, VMAT2 binding sites in the pancreas; conditions: rats, 60 min after tracer injection, ± SD, cited from earlier work
[3] = rats, avg ± SD, cited from earlier work
[4] = rats, iv
[5] = target: VMAT2 binding sites of beta cells in the pancreas (Rattus norvegicus, UniProt Q01827); conditions: rats, PET, post iv injection
[6] = 30 min after tracer injection, no pretreatment, n=4, ± SD
[7] = 30 min after tracer injection, pretreatment of (+)DTBZ 3.3 mg/kg iv 5 min prior
[8] = pretreatment of (+)2 3.5 mg/kg iv 5 min prior
[9] = 60 min after tracer injection, no pretreatment, n=4, ± SD
[10] = 60 min after tracer injection, pretreatment of (+)2 3.5 mg/kg iv 5 min prior

T1 sequence (Q01827 whole entry): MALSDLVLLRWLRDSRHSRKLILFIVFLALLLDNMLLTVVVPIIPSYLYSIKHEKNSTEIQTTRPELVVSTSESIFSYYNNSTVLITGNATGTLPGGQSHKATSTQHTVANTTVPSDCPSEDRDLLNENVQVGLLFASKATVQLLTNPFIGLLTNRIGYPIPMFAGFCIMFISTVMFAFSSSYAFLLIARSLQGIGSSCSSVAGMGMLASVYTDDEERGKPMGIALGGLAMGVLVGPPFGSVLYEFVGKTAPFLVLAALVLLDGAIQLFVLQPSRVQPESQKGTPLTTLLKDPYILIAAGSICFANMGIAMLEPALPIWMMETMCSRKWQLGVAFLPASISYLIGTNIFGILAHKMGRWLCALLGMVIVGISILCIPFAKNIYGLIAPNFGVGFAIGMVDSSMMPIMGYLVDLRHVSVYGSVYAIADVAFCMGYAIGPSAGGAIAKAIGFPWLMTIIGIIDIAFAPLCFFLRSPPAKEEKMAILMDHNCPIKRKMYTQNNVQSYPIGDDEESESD
Chain of VMAT2 (Q01827 whole entry): as above
Chain of VMAT2 binding sites of beta cells in the pancreas (Q01827 whole entry): as above

**Q.** With `COc1cc2c(cc1OCCC[18F])CCN1CC(CC(C)C)C(C3CO3)CC21` (stereo not drawn) [[^18F](−)4] [[^18F](−)-2-Oxiranyl-3-isobutyl-9-(3-fluoropropoxy)-10-methoxy-2,3,4,6,7, 11b-hexahydro-1H-pyrido[2,1-a]isoquinoline] as the compound, how does the “Labeling of rat brain sections (in vitro autoradiography)” value (VMAT2) read?
**A.** The value was “no specific binding in any brain region”.

**Q.** And the “Displaceability of pancreas uptake” value ([1]; 30 min, iv pretreatment of (+)DTBZ 3.3 mg/kg 5 min prior)?
**A.** The value was “non-displaceable”.

**Q.** What about the “Blood uptake, Control” value [1, 6] of the same compound?
**A.** Its value is 0.07 ± 0.00 %ID/g.

**Q.** What about the “Pancreas uptake, Control” value [1, 6] of the same compound?
**A.** Its value is 0.22 ± 0.02 %ID/g.

**Q.** And the “Blood uptake, Pretreatment” value [1, 7]?
**A.** The value was 0.12 ± 0.03 %ID/g.

**Q.** What about the “Pancreas uptake, Pretreatment” value [1, 7] of the same compound?
**A.** The value was 0.22 ± 0.04 %ID/g.

**Q.** What does the source list for `COc1cc2c(cc1OCCC[18F])CCN1CC(CC(C)C)C(O)CC21` (stereo not drawn) [[^18F](+)2, [^18F](−)-2-Hydroyxl-3-isobutyl-9-(3-fluoropropoxy)-10-methoxy-2,3,4,6,7, 11b-hexahydro-1H-pyrido[2,1-a]isoquinoline]?
**A.** Blood uptake, Control ([2]; no pretreatment): 0.20 ± 0.02 %ID/g; Pancreas uptake, Control ([2]; no pretreatment): 4.93 ± 0.49 %ID/g; Blood uptake, Pretreatment [2, 8]: 0.26 ± 0.04 %ID/g; Pancreas uptake, Pretreatment [2, 8]: 1.11 ± 0.07 %ID/g; Blood uptake ([3]; 2 min): 0.26 ± 0.03 %ID/g; Brain uptake ([3]; 2 min): 0.71 ± 0.05 %ID/g; Heart uptake ([3]; 2 min): 0.71 ± 0.07 %ID/g; Kidney uptake ([3]; 2 min): 2.10 ± 0.17 %ID/g; Liver uptake ([3]; 2 min): 3.53 ± 0.56 %ID/g; Lung uptake ([3]; 2 min): 0.94 ± 0.04 %ID/g; Muscle uptake ([3]; 2 min): 0.14 ± 0.03 %ID/g; Pancreas uptake ([3]; 2 min): 2.51 ± 0.22 %ID/g; Skin uptake ([3]; 2 min): 0.23 ± 0.05 %ID/g; Spleen uptake ([3]; 2 min): 1.46 ± 0.15 %ID/g; Blood uptake ([3]; 30 min): 0.23 ± 0.06 %ID/g; Brain uptake ([3]; 30 min): 0.62 ± 0.08 %ID/g; Heart uptake ([3]; 30 min): 0.41 ± 0.03 %ID/g; Kidney uptake ([3]; 30 min): 1.06 ± 0.06 %ID/g; Liver uptake ([3]; 30 min): 2.82 ± 0.24 %ID/g; Lung uptake ([3]; 30 min): 0.69 ± 0.03 %ID/g; Muscle uptake ([3]; 30 min): 0.17 ± 0.02 %ID/g; Pancreas uptake ([3]; 30 min): 5.50 ± 0.97 %ID/g; Skin uptake ([3]; 30 min): 0.28 ± 0.01 %ID/g; Spleen uptake ([3]; 30 min): 1.03 ± 0.18 %ID/g; Blood uptake ([3]; 60 min): 0.18 ± 0.02 %ID/g; Brain uptake ([3]; 60 min): 0.42 ± 0.04 %ID/g; Heart uptake ([3]; 60 min): 0.30 ± 0.10 %ID/g; Kidney uptake ([3]; 60 min): 0.84 ± 0.09 %ID/g; Liver uptake ([3]; 60 min): 2.47 ± 0.30 %ID/g; Lung uptake ([3]; 60 min): 0.54 ± 0.14 %ID/g; Muscle uptake ([3]; 60 min): 0.13 ± 0.01 %ID/g; Pancreas uptake ([3]; 60 min): 4.98 ± 0.24 %ID/g; Skin uptake ([3]; 60 min): 0.23 ± 0.04 %ID/g; Spleen uptake ([3]; 60 min): 0.83 ± 0.18 %ID/g; Blood uptake ([3]; 120 min): 0.12 ± 0.03 %ID/g; Brain uptake ([3]; 120 min): 0.35 ± 0.02 %ID/g; Heart uptake ([3]; 120 min): 0.22 ± 0.01 %ID/g; Kidney uptake ([3]; 120 min): 0.55 ± 0.06 %ID/g; Liver uptake ([3]; 120 min): 1.47 ± 0.13 %ID/g; Lung uptake ([3]; 120 min): 0.35 ± 0.03 %ID/g; Muscle uptake ([3]; 120 min): 0.10 ± 0.01 %ID/g; Pancreas uptake ([3]; 120 min): 2.76 ± 0.61 %ID/g; Skin uptake ([3]; 120 min): 0.16 ± 0.02 %ID/g; Spleen uptake ([3]; 120 min): 0.48 ± 0.04 %ID/g; Pancreas uptake, Control [1, 9]: 2.19 %ID/g; Pancreas uptake, Pretreatment [1, 10]: 0.32 %ID/g

**Q.** For `COc1cc2c(cc1OCCC[18F])CCN1CC(CC(C)C)C(C3CO3)CC21` (stereo not drawn) [[^18F](+)4] [[^18F](+)-2-Oxiranyl-3-isobutyl-9-(3-fluoropropoxy)-10-methoxy-2,3,4,6,7, 11b-hexahydro-1H-pyrido[2,1-a]isoquinoline], which “Pancreas uptake, Pretreatment” value [2, 8] is on record?
**A.** The value was 1.11 %ID/g.

**Q.** What about the Blood uptake ([4]; 2 min, n=3) of the same compound?
**A.** Its Blood uptake is 0.27 %ID/g.

**Q.** What about the Bone uptake ([4]; 2 min, n=3) of the same compound?
**A.** The Bone uptake was 0.29 %ID/g.

**Q.** What about the Brain uptake ([4]; 2 min, n=3) of the same compound?
**A.** The Brain uptake was 0.95 %ID/g.

**Q.** And the Heart uptake ([4]; 2 min, n=3)?
**A.** Its Heart uptake is 0.48 %ID/g.

**Q.** And the Kidney uptake ([4]; 2 min, n=3)?
**A.** Its Kidney uptake is 4.60 %ID/g.

**Q.** And the Liver uptake ([4]; 2 min, n=3)?
**A.** Its Liver uptake is 3.28 %ID/g.

**Q.** What about the Lung uptake ([4]; 2 min, n=3) of the same compound?
**A.** Its Lung uptake is 0.79 %ID/g.

**Q.** And the Muscle uptake ([4]; 2 min, n=3)?
**A.** Its Muscle uptake is 1.00 %ID/g.

**Q.** What about the Pancreas uptake ([4]; 2 min, n=3) of the same compound?
**A.** Its Pancreas uptake is 1.64 %ID/g.

**Q.** And the Skin uptake ([4]; 2 min, n=3)?
**A.** The Skin uptake was 0.21 %ID/g.

**Q.** What about the Spleen uptake ([4]; 2 min, n=3) of the same compound?
**A.** The Spleen uptake was 1.36 %ID/g.

**Q.** And the Blood uptake ([4]; 30 min, n=3)?
**A.** The Blood uptake was 0.15 %ID/g.

**Q.** And the Brain uptake ([4]; 30 min, n=3)?
**A.** The Brain uptake was 0.30 %ID/g.

**Q.** What about the Heart uptake ([4]; 30 min, n=3) of the same compound?
**A.** Its Heart uptake is 0.11 %ID/g.

**Q.** And the Kidney uptake ([4]; 30 min, n=3)?
**A.** Its Kidney uptake is 3.59 %ID/g.

**Q.** What about the Liver uptake ([4]; 30 min, n=3) of the same compound?
**A.** Its Liver uptake is 1.02 %ID/g.

**Q.** And the Lung uptake ([4]; 30 min, n=3)?
**A.** The Lung uptake was 0.48 %ID/g.

**Q.** And the Pancreas uptake ([4]; 30 min, n=3)?
**A.** Its Pancreas uptake is 1.96 %ID/g.

**Q.** What about the Skin uptake ([4]; 30 min, n=3) of the same compound?
**A.** Its Skin uptake is 0.14 %ID/g.

**Q.** And the Spleen uptake ([4]; 30 min, n=3)?
**A.** The Spleen uptake was 0.26 %ID/g.

**Q.** And the Blood uptake ([4]; 60 min, n=7)?
**A.** Its Blood uptake is 0.10 %ID/g.

**Q.** And the Bone uptake ([4]; 60 min, n=7)?
**A.** Its Bone uptake is 0.23 %ID/g.

**Q.** And the Brain uptake ([4]; 60 min, n=7)?
**A.** The Brain uptake was 0.32 %ID/g.

**Q.** What about the Heart uptake ([4]; 60 min, n=7) of the same compound?
**A.** Its Heart uptake is 0.07 %ID/g.

**Q.** What about the Kidney uptake ([4]; 60 min, n=7) of the same compound?
**A.** Its Kidney uptake is 2.21 %ID/g.

**Q.** What about the Liver uptake ([4]; 60 min, n=7) of the same compound?
**A.** Its Liver uptake is 0.67 %ID/g.

**Q.** And the Lung uptake ([4]; 60 min, n=7)?
**A.** The Lung uptake was 0.14 %ID/g.

**Q.** And the Muscle uptake ([4]; 60 min, n=7)?
**A.** Its Muscle uptake is 0.04 %ID/g.

**Q.** And the Pancreas uptake ([4]; 60 min, n=7)?
**A.** The Pancreas uptake was 2.68 %ID/g.

**Q.** And the Skin uptake ([4]; 60 min, n=7)?
**A.** The Skin uptake was 0.09 %ID/g.

**Q.** And the Spleen uptake ([4]; 60 min, n=7)?
**A.** Its Spleen uptake is 0.16 %ID/g.

**Q.** And the Blood uptake ([4]; 120 min, n=7)?
**A.** Its Blood uptake is 0.04 %ID/g.

**Q.** What about the Bone uptake ([4]; 120 min, n=7) of the same compound?
**A.** Its Bone uptake is 0.22 %ID/g.

**Q.** And the Brain uptake ([4]; 120 min, n=7)?
**A.** The Brain uptake was 0.24 %ID/g.

**Q.** What about the Heart uptake ([4]; 120 min, n=7) of the same compound?
**A.** The Heart uptake was 0.02 %ID/g.

**Q.** And the Kidney uptake ([4]; 120 min, n=7)?
**A.** Its Kidney uptake is 1.58 %ID/g.

**Q.** What about the Liver uptake ([4]; 120 min, n=7) of the same compound?
**A.** Its Liver uptake is 0.54 %ID/g.

**Q.** What about the Lung uptake ([4]; 120 min, n=7) of the same compound?
**A.** The Lung uptake was 0.05 %ID/g.

**Q.** And the Muscle uptake ([4]; 120 min, n=7)?
**A.** The Muscle uptake was 0.02 %ID/g.

**Q.** What about the Pancreas uptake ([4]; 120 min, n=7) of the same compound?
**A.** Its Pancreas uptake is 1.33 %ID/g.

**Q.** And the Skin uptake ([4]; 120 min, n=7)?
**A.** The Skin uptake was 0.04 %ID/g.

**Q.** And the Spleen uptake ([4]; 120 min, n=7)?
**A.** Its Spleen uptake is 0.08 %ID/g.

**Q.** And the Blood uptake ([4]; 240 min, n=4)?
**A.** Its Blood uptake is 0.02 %ID/g.

**Q.** What about the Bone uptake ([4]; 240 min, n=4) of the same compound?
**A.** Its Bone uptake is 0.27 %ID/g.

**Q.** What about the Brain uptake ([4]; 240 min, n=4) of the same compound?
**A.** The Brain uptake was 0.28 %ID/g.

**Q.** And the Heart uptake ([4]; 240 min, n=4)?
**A.** Its Heart uptake is 0.01 %ID/g.

**Q.** And the Kidney uptake ([4]; 240 min, n=4)?
**A.** Its Kidney uptake is 2.01 %ID/g.

**Q.** What about the Liver uptake ([4]; 240 min, n=4) of the same compound?
**A.** Its Liver uptake is 0.54 %ID/g.

**Q.** What about the Lung uptake ([4]; 240 min, n=4) of the same compound?
**A.** The Lung uptake was 0.03 %ID/g.

**Q.** What about the Muscle uptake ([4]; 240 min, n=4) of the same compound?
**A.** Its Muscle uptake is 0.01 %ID/g.

**Q.** What about the Pancreas uptake ([4]; 240 min, n=4) of the same compound?
**A.** Its Pancreas uptake is 0.81 %ID/g.

**Q.** And the Skin uptake ([4]; 240 min, n=4)?
**A.** Its Skin uptake is 0.02 %ID/g.

**Q.** And the Spleen uptake ([4]; 240 min, n=4)?
**A.** The Spleen uptake was 0.04 %ID/g.

**Q.** What about the “Pancreas uptake, Control” value [1, 9] of the same compound?
**A.** Its value is 2.19 ± 0.37 %ID/g.

**Q.** What about the “Blood uptake, Pretreatment” value [1, 10] of the same compound?
**A.** The value was 0.06 ± 0.01 %ID/g.

**Q.** And the “Pancreas uptake, Pretreatment” value [1, 10]?
**A.** Its value is 0.32 ± 0.07 %ID/g.

**Q.** And the “Time of peak uptake and retention in the pancreas” value [5]?
**A.** Its value is “around 60 min”.
